Test results taken from patent US7507730B2, “Substituted pyrazolo[1,5-a]pyrimidines as potassium channel activators” (Bristol-Myers Squibb Company, priority 2005, dated 2009).
Like-named read-outs stand apart in the source and are kept apart here.

Biological target: Kv1.5 (Homo sapiens, UniProt P22460)
Test: Kv1.5 inhibition assay (IKur inhibitor assay per cited references)
Format: cell-based
Settings: for inhibition at 0.3 µM / Kv1.5% inhibition: at 0.3 μM
Excerpt: Assays to determine the degree of activity of a compound as an IKur inhibitor are well known in the art and are described in references such as J. Gen. Physiol. Apr.; 101 (4):513-43, and Br. J. Pharmacol. 1995 May; 115(2):267-74.

Chain of Kv1.5 (P22460 whole entry): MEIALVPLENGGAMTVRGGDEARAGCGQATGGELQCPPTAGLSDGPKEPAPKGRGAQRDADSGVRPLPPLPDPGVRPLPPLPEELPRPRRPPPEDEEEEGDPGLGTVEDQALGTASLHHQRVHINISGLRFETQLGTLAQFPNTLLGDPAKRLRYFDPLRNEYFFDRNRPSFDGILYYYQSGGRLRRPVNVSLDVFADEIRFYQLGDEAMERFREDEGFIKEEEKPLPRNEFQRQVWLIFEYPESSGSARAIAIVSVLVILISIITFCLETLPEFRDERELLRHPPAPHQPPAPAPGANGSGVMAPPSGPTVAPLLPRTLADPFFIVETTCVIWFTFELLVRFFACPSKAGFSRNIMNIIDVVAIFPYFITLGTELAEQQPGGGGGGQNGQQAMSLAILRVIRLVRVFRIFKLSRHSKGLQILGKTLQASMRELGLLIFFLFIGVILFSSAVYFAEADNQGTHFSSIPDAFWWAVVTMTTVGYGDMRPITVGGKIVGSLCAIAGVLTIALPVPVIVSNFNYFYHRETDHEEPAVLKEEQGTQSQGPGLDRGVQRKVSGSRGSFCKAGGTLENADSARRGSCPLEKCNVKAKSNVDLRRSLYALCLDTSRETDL

SMILES: CC1=C(S(=O)(=O)c2ccccn2)C(c2ccc(Cl)cc2)n2nc(C(F)(F)F)cc2N1 (single isomer, unassigned) [Example 47 Isomer 1, 7-(4-Chlorophenyl)-5-methyl-6-(pyridin-2-ylsulfonyl)-2-(trifluoromethyl)-4,7-dihydropyrazolo[1,5-a]pyrimidine]
- IC50 (read-out: Kv1.5 IC50): 0.197 µM

SMILES: CC1=C(S(=O)(=O)C2CCCCC2)C(c2ccc(Cl)c(Cl)c2)n2nc(C)cc2N1 (single isomer, unassigned) [Example 10 Isomer 2, 6-(Cyclohexylsulfonyl)-7-(3,4-dichlorophenyl)-2,5-dimethyl-4,7-dihydropyrazolo[1,5-a]pyrimidine]
- inhibition at 0.3 µM: 59.3%

SMILES: COc1ccc(S(=O)(=O)C2=C(CO)Nc3cc(C(F)(F)F)nn3C2c2ccc(Cl)c(Cl)c2)cc1 (racemic) [Example 48, (7-(3,4-Dichlorophenyl)-6-(4-methoxyphenylsulfonyl)-2-(trifluoromethyl)-4,7-dihydropyrazolo[1,5-a]pyrimidin-5-yl)methanol]
- inhibition at 0.3 µM: 15%

SMILES: CC1=C(S(=O)(=O)NC2CCCCC2)C(c2ccc(Cl)c(Cl)c2)n2nc(C)cc2N1 (single isomer, unassigned) [Example 38 Isomer 1, N-Cyclohexyl-7-(3,4-dichlorophenyl)-2,5-dimethyl-4,7-dihydropyrazolo[1,5-a]pyrimidine-6-sulfonamide]
- IC50 (read-out: Kv1.5 IC50): 0.108 µM

SMILES: CC1=C(S(=O)(=O)N2CCOCC2)C(c2ccc(Cl)c(Cl)c2)n2nc(C(F)(F)F)cc2N1 (single isomer, unassigned) [Example 66 Isomer 1, 7-(3,4-Dichlorophenyl)-5-methyl-6-(morpholinosulfonyl)-2-(trifluoromethyl)-4,7-dihydropyrazolo[1,5-a]pyrimidine]
- inhibition at 0.3 µM: 51%

SMILES: CC1=C(S(=O)(=O)c2ccc(Cl)cc2)C(c2ccc(Cl)c(Cl)c2)n2nccc2N1 (single isomer, unassigned) [Example 2 Isomer 2, 6-(4-Chlorophenylsulfonyl)-7-(3,4-dichlorophenyl)-5-methyl-4,7-dihydropyrazolo[1,5-a]pyrimidine]
- IC50 (read-out: Kv1.5 IC50): 0.037 µM

SMILES: COc1ccc(S(=O)(=O)N(C)C(=O)C2=C(C)Nc3cc(C)nn3C2c2ccc(Cl)c(Cl)c2)cc1 (racemic) [Example 77, 7-(3,4-Dichlorophenyl)-N-(4-methoxyphenylsulfonyl)-N,2,5-trimethyl-4,7-dihydropyrazolo[1,5-a]pyrimidine-6-carboxamide]
- IC50 (given as % inhibition, value given as a concentration in μM, read-out: Kv1.5% inhibition): 0.172 µM

SMILES: COc1ccc(S(=O)(=O)C2=C(C)Nc3cc(C)nn3C2c2cccc(Cl)c2)cc1 (single isomer, unassigned) [Example 17 Isomer 1, 7-(3-Chlorophenyl)-6-(4-methoxyphenylsulfonyl)-2,5-dimethyl-4,7-dihydropyrazolo[1,5-a]pyrimidine]
- IC50 (read-out: Kv1.5 IC50): 0.256 µM

SMILES: CC1=C(C(=O)N(C)S(=O)(=O)c2ccc(F)cc2)C(c2ccc(Cl)c(Cl)c2)n2nc(C(F)(F)F)cc2N1 (racemic) [Example 82, 7-(3,4-Dichlorophenyl)-N-(4-fluorophenylsulfonyl)-N,5-dimethyl-2-(trifluoromethyl)-4,7-dihydropyrazolo[1,5-a]pyrimidine-6-carboxamide]
- inhibition at 0.3 µM: 7%

SMILES: CC1=C(S(=O)(=O)NC2CCCCC2)C(c2ccc(Cl)cc2)n2nc(C(F)(F)F)cc2N1 (racemic) [Example 52, 7-(4-Chlorophenyl)-N-cyclohexyl-5-methyl-2-(trifluoromethyl)-4,7-dihydropyrazolo[1,5-a]pyrimidine-6-sulfonamide]
- inhibition at 0.3 µM: 49.6%

SMILES: CCCCS(=O)(=O)C1=C(C)Nc2cc(C(F)(F)F)nn2C1c1ccc(Cl)cc1 (single isomer, unassigned) [Example 30 Isomer 1, 6-(Butylsulfonyl)-7-(4-chlorophenyl)-5-methyl-2-(trifluoromethyl)-4,7-dihydropyrazolo[1,5-a]pyrimidine]
- IC50 (read-out: Kv1.5 IC50): 0.21 µM

SMILES: CC1=C(S(=O)(=O)c2ccc(C)cc2)C(c2ccc(Cl)c(Cl)c2)n2nc(C)cc2N1 (single isomer, unassigned) [Example 5 Isomer 1, 7-(3,4-Dichlorophenyl)-2,5-dimethyl-6-tosyl-4,7-dihydropyrazolo[1,5-a]pyrimidine]
- IC50 (read-out: Kv1.5 IC50): 0.048 µM

SMILES: CC1=C(S(=O)(=O)c2ccccc2)C(c2ccc(Cl)c(F)c2)n2nc(C(F)(F)F)cc2N1 (single isomer, unassigned) [Example 33 Isomer 1, 7-(4-Chloro-3-fluorophenyl)-5-methyl-6-(phenylsulfonyl)-2-(trifluoromethyl)-4,7-dihydropyrazolo[1,5-a]pyrimidine]
- inhibition at 0.3 µM: 75.5%

SMILES: CC1=C(C(=O)N2CCCCS2(=O)=O)C(c2ccc(Cl)c(Cl)c2)n2nc(C)cc2N1 (single isomer, unassigned) [Example 84 Isomer 1]
- Kv1.5% inhibition: 19%

SMILES: CC1=C(S(=O)(=O)c2ccc(Cl)cc2)C(C2CCCCC2)n2nc(C(F)(F)F)cc2N1 (single isomer, unassigned) [Example 44 Isomer 2, 6-(4-Chlorophenylsulfonyl)-7-cyclohexyl-5-methyl-2-(trifluoromethyl)-4,7-dihydropyrazolo[1,5-a]pyrimidine]
- inhibition at 0.3 µM: 21.3%

SMILES: CC1=C(C(=O)N(C)S(=O)(=O)c2ccccc2)C(c2ccc(Cl)c(Cl)c2)n2nccc2N1 (racemic) [Example 74, 7-(3,4-Dichlorophenyl)-N,5-dimethyl-N-(phenylsulfonyl)-4,7-dihydropyrazolo[1,5-a]pyrimidine-6-carboxamide]
- inhibition at 0.3 µM: 79%

SMILES: COc1cccc(S(=O)(=O)C2=C(C)Nc3cc(C(F)(F)F)nn3C2c2ccc(C)c(F)c2)c1 (single isomer, unassigned) [Example 41 Isomer 2, 7-(3-Fluoro-4-methylphenyl)-6-(3-methoxyphenylsulfonyl)-5-methyl-2-(trifluoromethyl)-4,7-dihydropyrazolo[1,5-a]pyrimidine]
- Kv1.5% inhibition: 85.8%

SMILES: CC1=C(S(=O)(=O)c2ccc(Cl)cc2)C(c2ccccc2)n2nc(C(F)(F)F)cc2N1 (single isomer, unassigned) [Example 35 Isomer 2, 6-(4-Chlorophenylsulfonyl)-5-methyl-7-phenyl-2-(trifluoromethyl)-4,7-dihydropyrazolo[1,5-a]pyrimidine]
- IC50 (read-out: Kv1.5 IC50): 0.252 µM

SMILES: CC1=C(S(=O)(=O)c2ccccc2)C(c2ccc(Cl)c(F)c2)n2nc(C(F)(F)F)cc2N1 (single isomer, unassigned) [Example 33 Isomer 2, 7-(4-Chloro-3-fluorophenyl)-5-methyl-6-(phenylsulfonyl)-2-(trifluoromethyl)-4,7-dihydropyrazolo[1,5-a]pyrimidine]
- Kv1.5% inhibition: 76.5%

SMILES: CC1=C(C(=O)N(C)S(=O)(=O)c2ccccc2)C(c2ccc(Cl)c(Cl)c2)n2nc(C)cc2N1 (single isomer, unassigned) [Example 79 Isomer 1, 7-(3,4-Dichlorophenyl)-N,2,5-trimethyl-N-(phenylsulfonyl)-4,7-dihydropyrazolo[1,5-a]pyrimidine-6-carboxamide]
- Kv1.5% inhibition: 25%

SMILES: CC1=C(S(=O)(=O)NCc2ccccc2)C(c2ccc(Cl)c(Cl)c2)n2nc(C(F)(F)F)cc2N1 (single isomer, unassigned) [Example 56 Isomer 1, N-Benzyl-7-(3,4-dichlorophenyl)-5-methyl-2-(trifluoromethyl)-4,7-dihydropyrazolo[1,5-a]pyrimidine-6-sulfonamide]
- inhibition at 0.3 µM: 50%

SMILES: CCCS(=O)(=O)N(C)C(=O)C1=C(C)Nc2cc(C(F)(F)F)nn2C1c1ccc(Cl)c(Cl)c1 (single isomer, unassigned) [Example 91 Isomer 1, 7-(3,4-Dichlorophenyl)-N,5-dimethyl-N-(propylsulfonyl)-2-(trifluoromethyl)-4,7-dihydropyrazolo[1,5-a]pyrimidine-6-carboxamide]
- inhibition at 0.3 µM: 72%

SMILES: CC1=C(S(=O)(=O)N2CCCC2)C(c2ccc(Cl)c(Cl)c2)n2nc(C)c(Cl)c2N1 (single isomer, unassigned) [Example 69 Isomer 1, 3-Chloro-7-(3,4-dichlorophenyl)-2,5-dimethyl-6-(pyrrolidin-1-ylsulfonyl)-4,7-dihydropyrazolo[1,5-a]pyrimidine]
- inhibition at 0.3 µM: 40%

SMILES: CC1=C(S(=O)(=O)c2ccc(Cl)cc2)C(C2CCCCC2)n2nc(C(F)(F)F)cc2N1 (single isomer, unassigned) [Example 44 Isomer 1, 6-(4-Chlorophenylsulfonyl)-7-cyclohexyl-5-methyl-2-(trifluoromethyl)-4,7-dihydropyrazolo[1,5-a]pyrimidine]
- IC50 (read-out: Kv1.5 IC50): 0.202 µM

SMILES: CCCCS(=O)(=O)N(C)C(=O)C1=C(C)Nc2cc(C(F)(F)F)nn2C1c1ccc(Cl)c(Cl)c1 (racemic) [Example 86, N-(Butylsulfonyl)-7-(3,4-dichlorophenyl)-N,5-dimethyl-2-(trifluoromethyl)-4,7-dihydropyrazolo[1,5-a]pyrimidine-6-carboxamide]
- IC50 (read-out: Kv1.5 IC50): 0.242 µM

SMILES: CCCCS(=O)(=O)C1=C(C)Nc2cc(C(F)(F)F)nn2C1c1ccc(Cl)cc1 (single isomer, unassigned) [Example 30 Isomer 2, 6-(Butylsulfonyl)-7-(4-chlorophenyl)-5-methyl-2-(trifluoromethyl)-4,7-dihydropyrazolo[1,5-a]pyrimidine]
- inhibition at 0.3 µM: 77%

SMILES: CC1=C(S(=O)(=O)c2ccc(Cl)cc2)C(c2ccccc2)n2nc(C(F)(F)F)cc2N1 (single isomer, unassigned) [Example 35 Isomer 1, 6-(4-Chlorophenylsulfonyl)-5-methyl-7-phenyl-2-(trifluoromethyl)-4,7-dihydropyrazolo[1,5-a]pyrimidine]
- IC50 (read-out: Kv1.5 IC50): 0.277 µM

SMILES: CC1=C(C(=O)N(C)S(=O)(=O)C(C)C)C(c2ccc(Cl)c(Cl)c2)n2nc(C(F)(F)F)cc2N1 (single isomer, unassigned) [Example 96 Isomer 1, 7-(3,4-Dichlorophenyl)-N-(isopropylsulfonyl)-N,5-dimethyl-2-(trifluoromethyl)-4,7-dihydropyrazolo[1,5-a]pyrimidine-6-carboxamide]
- inhibition at 0.3 µM: 57%
